Assay results: patent US6441162B2, “Crystalline substance of cefditoren pivoxyl and the production of the same” (Meiji Seika Kaisha, Ltd., priority 1996, dated 2002)

Experiment: Thermal stability on storage in sealed dry containers, residual Cefditoren pivoxyl by liquid chromatography
Type: physicochemical
Conditions: sealed dry container; for Residual quantity (%) of Cefditoren pivoxyl upon storage at 60° C., Initial content (at 0 day): initial content assumed to be 100%
Source text: In order to test the thermal stability on storage of the new crystalline substance of Cefditoren pivoxyl according to this invention, in comparison with the known, amorphous form of Cefditoren pivoxyl, there were employed a sample of the crystalline Cefditoren pivoxyl which was produced in Example 1 given hereinafter, as well as a sample of the amorphous Cefditoren pivoxyl which was produced by admixing a solution of amorphous Cefditoren pivoxyl in methanol with an aqueous iso-propanol to precipitate an amorphous powder of this compound and separating and drying this powder under a reduced pressure. These samples were separately placed in sealed dry containers and were stored for 1 month, for 2 months and for 4 months at 60° C. and at 40° C., respectively. After these storages, the samples were analysed by a liquid chromatographic method and percentages of the residual quantity of Cefditoren pivoxyl remaining in the stored samples were evaluated from the area under the absorption peak which was shown in the chromatogramms obtained. It is assumed that the initial content of Cefditoren pivoxyl in the test samples was 100% at the starting of the storages.

Residual quantity (%) of Cefditoren pivoxyl upon storage at 60° C., After 1 month [%] | Residual quantity (%) of Cefditoren pivoxyl upon storage at 60° C., After 2 months [%] | Residual quantity (%) of Cefditoren pivoxyl upon storage at 60° C., Initial content (at 0 day) [%] | Residual quantity of Cefditoren pivoxyl after the 4-month storage at 40° C. (40° C., 4 months) [%] | Residual quantity (%) of Cefditoren pivoxyl upon storage at 60° C., After 2 months (listed as crystalline substance of Cefditoren pivoxyl) [%] | SMILES
93 | 88 | 100 |  |  | CO/N=C(\C(=O)NC1C(=O)N2C(C(=O)OCOC(=O)C(C)(C)C)=C(/C=C\c3scnc3C)CS[C@H]12)c1csc(N)n1 (some centres unmarked) [Amorphous substance, 7-[(Z)-2-(2-aminothiazol-4-yl)-2-methoxyiminoacetamido]-3-[(Z)-2-(4-methylthiazol-5-yl)ethenyl]-3-cephem-4-carboxylic acid pivaloyloxymethyl ester, reference compound]
99 | 99 | 100 | 99 | 99 | CO/N=C(\C(=O)NC1C(=O)N2C(C(=O)OCOC(=O)C(C)(C)C)=C(/C=C\c3scnc3C)CS[C@H]12)c1csc(N)n1 (some centres unmarked) [Crystalline substance, 7-[(Z)-2-(2-aminothiazol-4-yl)-2-methoxyiminoacetamido]-3-[(Z)-2-(4-methylthiazol-5-yl)ethenyl]-3-cephem-4-carboxylic acid pivaloyloxymethyl ester]
